# Molecular target: T1, IGF-1R (Homo sapiens, UniProt P08069)
# T1 construct: expressed in transfected cells; host or cells: Hek293 (Hek293-IGF1R)
# Assay: Cellular IGF-1R assay: capture ELISA (MSD) of receptor phosphorylation in Hek293 cells
# Format: cell-based
# Conditions: Hek293-IGF1R cells, 1 h pre-incubation, 10 min IGF stimulation, pIGF1R capture ELISA
# Procedure: (§1) In this assay the activity of the compounds of the invention against Insulin-like growth factor I (IGF-I) induced autophosphorylation of the IGF-IR was determined. The assay was conducted as follows: Compound-mediated inhibition of IGF1R and INSR phosphorylation in Hek293 cells transduced with the corresponding receptors was assessed in a capture ELISA format using the MSD (Meso Scale Discovery) platform. Briefly, 30,000 cells washed and diluted in starvation medium (DMEM high glucose supplemented with 0.1% BSA) were seeded in 90 μL per well into 96-well plates pre-coated with poly-D-lysine (0.1 mg/mL in PBS/O). After 24 h incubation at 37° C. and 5% CO2, dose-response effects were determined with 3-fold serial compound dilutions, starting at 10 μM. The final vehicle concentration is 0.1% DMSO in all wells. Following pre-incubation with compounds for 1 h, receptor phosphorylation was triggered by a 10 min exposure to 1.0 ng/μL IGF for Hek293-IGF1R cells, and 5.0 ng/μL insulin for Hek293-InsR cells. Cell lysis was achieved by addition of 80 μL MSD lysis buffer per aspirated well, incubation on ice for 20 min, and a freeze-thaw cycle. Target phosphorylation was then assessed by transferring volumes corresponding to approx. 6 μg Hek293-IGF1R or 0.6 μg Hek293-InsR lysates to MSD assay plates pre-coated with total-IGF1R or total-InsR Abs, respectively. […] Immune complexes were detected by a SULFO-Tag™-coupled anti-rabbit IgG antibody in the presence of 150 μL MSD read-buffer. Light emission at 620 nm triggered by application of electric current was recorded on a MSD Sectorlmager 6000. Acquired raw data (mean Ru-ECL units) were processed in an Excel analysis template. The plate blank (MSD lysis buffer) was subtracted from all data points. The effect of a particular test compound concentration on receptor phosphorylation was expressed relative to the window defined by ligand-stimulated vs unstimulated control cells (set as 100%). IC50 values [nM] were determined using 4-parametric curve-fitting (XLfit software, V4.3.2).
# as §1, with “Compound-mediated” for “In this assay the activity of the compounds of the invention against Insulin-like growth factor I (IGF-I) induced autophosphorylation of the IGF-IR was determined. The assay was conducted as follows: Compound-mediated”, “cells trans-duced” for “cells transduced”, “receptors were” for “receptors was”, “concentration was” for “concentration is”, “for Hek293-IGF1 R” for “for Hek293-IGF1R”, “with total-IGF1 R” for “with total-IGF1R”
# T1 sequence (P08069 31-1367): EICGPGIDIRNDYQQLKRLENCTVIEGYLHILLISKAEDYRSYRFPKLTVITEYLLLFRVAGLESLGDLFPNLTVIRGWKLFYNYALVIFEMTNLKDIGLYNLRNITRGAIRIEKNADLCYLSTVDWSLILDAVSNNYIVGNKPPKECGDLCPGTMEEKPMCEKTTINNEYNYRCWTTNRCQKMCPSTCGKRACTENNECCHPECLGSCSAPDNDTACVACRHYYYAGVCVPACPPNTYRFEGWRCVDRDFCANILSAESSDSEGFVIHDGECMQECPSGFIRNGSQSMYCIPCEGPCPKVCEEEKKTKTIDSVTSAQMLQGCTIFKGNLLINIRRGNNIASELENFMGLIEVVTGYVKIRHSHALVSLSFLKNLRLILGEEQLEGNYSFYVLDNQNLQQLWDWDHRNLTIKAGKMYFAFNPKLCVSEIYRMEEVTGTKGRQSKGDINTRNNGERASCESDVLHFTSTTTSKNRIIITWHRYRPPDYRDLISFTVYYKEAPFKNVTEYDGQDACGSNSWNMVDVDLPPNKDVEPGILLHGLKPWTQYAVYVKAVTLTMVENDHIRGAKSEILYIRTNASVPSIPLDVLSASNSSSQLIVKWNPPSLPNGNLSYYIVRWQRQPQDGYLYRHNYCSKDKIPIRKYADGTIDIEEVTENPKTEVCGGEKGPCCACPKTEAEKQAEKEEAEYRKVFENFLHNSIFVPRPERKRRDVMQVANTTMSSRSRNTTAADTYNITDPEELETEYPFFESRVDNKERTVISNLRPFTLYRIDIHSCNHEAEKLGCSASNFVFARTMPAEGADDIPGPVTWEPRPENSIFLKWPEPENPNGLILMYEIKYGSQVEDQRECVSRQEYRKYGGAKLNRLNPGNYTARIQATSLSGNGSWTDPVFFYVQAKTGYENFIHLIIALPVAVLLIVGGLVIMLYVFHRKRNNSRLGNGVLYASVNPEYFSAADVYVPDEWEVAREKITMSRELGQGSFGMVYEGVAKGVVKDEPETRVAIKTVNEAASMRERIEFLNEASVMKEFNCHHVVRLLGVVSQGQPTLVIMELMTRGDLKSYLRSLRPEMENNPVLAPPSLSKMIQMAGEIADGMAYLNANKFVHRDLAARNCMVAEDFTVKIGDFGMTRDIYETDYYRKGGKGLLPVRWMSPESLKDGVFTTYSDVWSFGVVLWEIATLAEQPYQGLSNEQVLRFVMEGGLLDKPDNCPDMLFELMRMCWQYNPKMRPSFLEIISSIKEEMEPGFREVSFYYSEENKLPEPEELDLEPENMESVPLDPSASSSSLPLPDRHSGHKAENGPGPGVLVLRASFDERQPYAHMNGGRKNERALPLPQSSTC
row,IC50 [nM],Compound
1,224,"CC1(C)CCC(COc2cccc(-c3cn(C4CC(CN5CCC(F)C5)C4)c4ncnc(N)c34)c2)O1 (single isomer, unassigned) [Example 39]"
2,51 to 58,"CC1CCC(COc2cccc(-c3cn([C@H]4C[C@@H](CN5CCC5)C4)c4ncnc(N)c34)c2)O1 (stereo partly drawn) [Example 5, cis-7-(3-azetidin-1-ylmethyl-cyclobutyl)-5-[3-(5-methyl-tetrahydro-furan-2-ylmethoxy)-phenyl]-7H-pyrrolo[2,3-d]pyrimidin-4-ylamine]"
3,598,"Cn1nnnc1C[C@]1(O)C[C@H](n2cc(-c3cccc(OCC45CCC(CC4)O5)c3)c3c(N)ncnc32)C1 [Example 217, (E)-3-{4-Amino-5-[3-(7-oxa-bicyclo[2.2.1]hept-1-ylmethoxy)-phenyl]-pyrrolo[2,3-d]pyrimidin-7-yl}-1-(1-methyl-1H-tetrazol-5-ylmethyl)-cyclobutanol]"
4,21,CC1(OC(=O)NC[C@H]2C[C@@H](n3cc(-c4cccc(OCC56CCC(CC5)O6)c4)c4c(N)ncnc43)C2)CC1 [Example 107]
5,15,"Nc1ncnc2c1c(-c1cccc(OCC34CCC(CC3)O4)c1)cn2C1CC(CN2CC[C@@H](O)C2)C1 (stereo partly drawn) [Example 213, (R)-1-(3-{4-Amino-5-[3-(7-oxa-bicyclo[2.2.1]hept-1-ylmethoxy)-phenyl]-pyrrolo[2,3-d]pyrimidin-7-yl}-cyclobutylmethyl)-pyrrolidin-3-ol]"
6,7 to 14,"[2H]C([2H])(Oc1cccc(-c2cn([C@H]3C[C@@H](CN4CCS(=O)(=O)CC4)C3)c3ncnc(N)c23)c1)C12CCC(CC1)O2 [Example 159, d2-7-[cis-3-(1,1-dioxo-1-thiomorpholin-4-ylmethyl)-cyclobutyl]-5-[3-(7-oxa-bicyclo[2.2.1]hept-1-ylmethoxy)-phenyl]-7H-pyrrolo[2,3-d]pyrimidin-4-ylamine]"
7,538,"Nc1ncnc2c1c(-c1cccc(OCC3CCCCO3)c1)cn2[C@H]1C[C@@H](CN2CCC[C@@H]2C(=O)O)C1 (stereo partly drawn) [Example 90, 1-(cis-3-{4-amino-5-[3-(tetrahydro-pyran-2-ylmethoxy)-pheny]-pyrrolo[2,3-d]pyrimidin-7-yl}-cyclobutylmethyl)-pyrrolidine-2-carboxylic acid]"
8,149,"7-[cis-3-(2-hydroxymethyl-imidazol-1-ylmethyl)-cyclobutyl]-53-(7-oxa-bicyclo[2.2.1]hept-1-ylmethoxy)--phenyl]-7H-pyrrolo[2,3-d]pyrimidin-4-ylamine [Example 176]"
9,35 to 38,"Nc1ncnc2c1c(-c1cccc(OCC34CCC(CC3)O4)c1)cn2[C@H]1C[C@@H](N2CC[S+]([O-])CC2)C1 (relative stereo) [Example 232, 5-[3-(7-Oxa-bicyclo[2.2.1]hept-1-ylmethoxy)-phenyl]-7-[cis-3-(1-oxo-thiomorpholin-4-yl)-cyclobutyl]-7H-pyrrolo[2,3-d]pyrimidin-4-ylamine]"
10,10 to 15,"Nc1ncnc2c1c(-c1cccc(OCC34CCC(CC3)O4)c1)cn2C1CC(CN2CC3CC2C[S+]3[O-])C1 (single isomer, unassigned) [Example 228]"
11,579,"CC1(O)CC(n2cc(-c3cccc(OCC45CCC(CC4)O5)c3)c3c(N)ncnc32)C1 (stereo not shown) [Example 219, (E)-3-(4-amino-5-[3-(7-oxa-bicyclo[2.2.1]hept-1-ylmethoxy)-phenyl]-pyrrolo[2,3-d]pyrimidin-7-yl}-1-methyl-cyclobutanol]"
12,71,"Cc1nccn1C[C@H]1C[C@@H](n2cc(-c3cccc(OCC4CCCCO4)c3)c3c(N)ncnc32)C1 (relative stereo) [Example 154, 7-[cis-3-(2-methyl-imidazol-1-ylmethyl)-cyclobutyl]-5-[3-(tetrahydro-pyran-2-ylmethoxy)-phenyl]-7H-pyrrolo[2,3-d]pyrimidin-4-ylamine]"
13,44,"Nc1ncnc2c1c(-c1cccc(OCC34CCC(CC3)O4)c1)cn2C1CC(N2CCN(CCO)CC2)C1 (stereo not shown) [Example 170, 2-[4-(3-{4-amino-5-[3-(7-oxa-bicyclo[2.2.1]hept-1-ylmethoxy)-phenyl]-pyrrolo[2,3-d]pyrimidin-7-yl}-cyclobutyl)-piperazin-1-yl]-ethanol]"
